In paper PMC10586260 (ACS Omega, 2023):
Several values for one entry are separate records, joined by “and”; a condition that tells them apart may be missing. Identical values can stand only once. Entries after “also recorded” stand apart in the source; their conditions may differ. Like-named read-outs stand apart in the source and are kept apart here.

What was measured:
PfINDO [1] = test: SYBR green I antiplasmodial growth inhibition assay; type: cell-based; settings: Plasmodium falciparum
MTT cytotoxicity assay [2] = type: cell-based, Human; settings: human, HEK293 cells
PfCam3.1^R539T (MRA1240) = test: SYBR green I antiplasmodial growth inhibition assay; type: cell-based; settings: Plasmodium falciparum
MTT cytotoxicity assay [3] = type: cell-based, Human; settings: human, HUH-7 cells
Pf3D7 = test: SYBR green I antiplasmodial growth inhibition assay; type: cell-based; settings: Plasmodium falciparum
P. falciparum (MRA1240) = test: Fixed-ratio drug combination assay; type: cell-based, Plasmodium falciparum; settings: in combination with PYR, MFQ, and ART
[4] = 700 mg dosage in humans, MDR-TB treatment; cited from earlier work
[5] = test system: PfCam3.1^R539T early rings (0–3 h p.i.); test: Ring-stage survival assay; type: cell-based, Plasmodium falciparum; settings: 10× IC50, 6 h treatment, 66 h recovery
PfGAP50 = molecular target: T1, PfGAP50 (Plasmodium falciparum, UniProt Q8I2X3); test: Surface plasmon resonance, PfGAP50 immobilized on CM5 chip, 1:1 binding model; settings: KD (SPR, GAP50), 1:1 Langmuir binding model
T1 sequence (Q8I2X3 24-365 limits assumed): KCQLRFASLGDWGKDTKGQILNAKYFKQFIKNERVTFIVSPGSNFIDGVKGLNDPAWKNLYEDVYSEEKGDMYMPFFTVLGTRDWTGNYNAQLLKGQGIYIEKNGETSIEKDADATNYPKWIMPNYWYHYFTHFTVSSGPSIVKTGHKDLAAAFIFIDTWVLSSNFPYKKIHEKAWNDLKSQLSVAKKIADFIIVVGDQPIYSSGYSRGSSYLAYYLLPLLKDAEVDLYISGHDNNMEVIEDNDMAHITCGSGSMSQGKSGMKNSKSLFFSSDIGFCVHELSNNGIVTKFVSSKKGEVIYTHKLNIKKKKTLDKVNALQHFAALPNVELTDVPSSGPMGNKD

PfINDO late schizonts = test: Egress/invasion inhibition assay; type: cell-based, Plasmodium falciparum; settings: segmental schizonts, 8 h at 2× IC50, then 48 h drug free
PfINDO [6] = test: Giemsa microscopy of parasite morphology after treatment at IC50; type: cell-based, Plasmodium falciparum; settings: ring-stage parasites (6–12 h p.i.) treated at IC50 up to 57 h
[7] = test system: P. falciparum strains (Pf3D7, PfINDO, PfCam3.1^R539T); test: SYBR green I antiplasmodial assay, several strains stated together; type: cell-based; settings: Plasmodium falciparum, read-out: IC50s against all three strains of Plasmodium
P. bergheiANKA = test: In vivo antimalarial study; design: species or system mice; settings: 50 mg/kg oral, 4 consecutive days
HEK293 = test: MTT cytotoxicity assay; type: cell-based, Human; settings: for selectivity index for P. falciparum parasites: human kidney and liver cell lines vs parasite; for Selectivity index A: CC50 HEK293/IC50PfINDO
HUH-7 = test: MTT cytotoxicity assay; type: cell-based, Human; settings: CC50PfHUH7/IC50PfINDO
[8] = read-out: IC50 (nM) against Pf strains INDO
[9] = read-out: IC50 (nM) against Pf strains Cam3.1^R539T
[10] = 3D7, read-out: IC50 (nM) against Pf strains 3D7

Compound | IC50 (PfINDO [1]; [8]) [nM] | CC50 at 24 h (MTT cytotoxicity assay [2]) [nM] | IC50 (PfCam3.1^R539T (MRA1240); [9]) [nM] | CC50 at 24 h (MTT cytotoxicity assay [3]) [nM] | IC50 (Pf3D7; [10]) [nM] | interaction by average ∑FIC (P. falciparum (MRA1240)) | Kd (PfGAP50) | effect on merozoite egress and invasion (PfINDO late schizonts) | effect on parasite morphology and development (PfINDO [6]) | IC50 [7] [nM] | selectivity index for P. falciparum parasites (HEK293) [fold] | further results
C[C@@H]1CC[C@H]2[C@@H](C)C(=O)O[C@@H]3O[C@@]4(C)CC[C@@H]1[C@]32OO4 [Artemisinin] | 10 ± 2 | > 100000 | 15 ± 2 | > 100000 | 13 ± 4 |  |  |  |  |  |  | 
COc1nc2ccc(Br)cc2cc1[C@@H](c1ccccc1)[C@@](O)(CCN(C)C)c1cccc2ccccc12 [Bedaquiline, (1R,2S)-1-(6-bromo-2-methoxyquinolin-3-yl)-4-(dimethylamino)-2-naphthalen-1-yl-1-phenylbutan-2-ol] |  | > 400000 | 769 ± 73.6 | > 400000 | 1210 ± 22.4 | additive (∑FIC 1–2.0) | < 75000 nM and 9270 nM | schizontocidal activity; also recorded: completely prevented invasion/schizont rupture | permitted parasites to develop normally while preventing merozoites from invading | ≤ 1500 |  | Cmax [4]: 6470 ng/mL; effect on early rings in RSA [5]: showed activity against early rings; mice surviving / cured (P. bergheiANKA): three out of seven; suppression of % parasitemia (P. bergheiANKA): substantial suppression of parasitemia; also recorded: complete suppression of % parasitemia by day 19
N=C(N)NCCCCC(=O)Nc1cc(C(F)(F)F)cc(NC(=O)c2cc(C(=O)Nc3cc(C(F)(F)F)cc(NC(=O)CCCCNC(=N)N)c3O[C@@H]3CCNC3)ncn2)c1O[C@@H]1CCNC1 [Brilacidin, 4-N,6-N-bis[3-(5-carbamimidamidopentanoylamino)-2-[(3R)-pyrrolidin-3-yl]oxy-5-(trifluoromethyl)phenyl]pyrimidine-4,6-dicarboxamide] | 634 ± 153 | > 200000 | 728 ± 65.2 | > 200000 | 405 ± 63 | additive (∑FIC 1–2.0) | < 75000 nM and 2810 nM | completely prevented invasion/schizont rupture | partial suppression of invasion | ≤ 1500 | > 100 | effect on early rings in RSA [5]: cause retardation in the growth cycle but are not able to kill early rings
CCN(CC)CCCC(C)Nc1ccnc2cc(Cl)ccc12 (centres unmarked) [Chloroquine] | 290 ± 20 | 45700 ± 3120 | 55 ± 4 | 58500 ± 4730 | 14 ± 5 |  |  |  |  |  |  | Selectivity index A (HEK293): 157.55; Selectivity index B (HUH-7): 201.86
Oc1cccc(C(Nc2nccs2)c2ccc3cccnc3c2O)c1 (centres unmarked) [MMV642550, 7-[(3-hydroxyphenyl)-(1,3-thiazol-2-ylamino)methyl]quinolin-8-ol] | 986 ± 159 | > 200000 | 1400 ± 97 | > 200000 | 393 ± 6.45 |  | < 75000 nM | only partial inhibition of parasite invasion | permitted Pf development | ≤ 1500 | > 100 | effect on merozoite egress and invasion (PfINDO late schizonts; listed as 642550): slowed the schizont rupture
NC(N)=Nc1ccc(-c2ccc(-c3ccc(N=C(N)N)c(Cl)c3)o2)cc1Cl [MMV688271, 2-[2-chloro-4-[5-[3-chloro-4-(diaminomethylideneamino)phenyl]furan-2-yl]phenyl]guanidine] | 284 ± 24.7 | 119000 ± 33700 | 387 ± 39.6 | 29600 ± 3760 | 258 ± 54.2 | additive (∑FIC 1–2.0) | < 75000 nM and 20000 nM | schizontocidal activity; also recorded: completely prevented invasion/schizont rupture | inhibited schizont egression | ≤ 1500 | > 100 | Selectivity index A (HEK293): 478.31; Selectivity index B (HUH-7): 119.08
O=C1[C@H](CC[C@H](O)c2ccc(F)cc2)[C@@H](c2ccc(O)cc2)N1c1ccc(F)cc1 [MMV1581377, (3R,4S)-1-(4-fluorophenyl)-3-[(3S)-3-(4-fluorophenyl)-3-hydroxypropyl]-4-(4-hydroxyphenyl)azetidin-2-one] |  |  |  |  |  |  | 1160 nM |  |  |  |  | 
CC(C)(C)NC(=O)[C@@H]1CN(Cc2cnc3occc3c2)CCN1C[C@@H](O)C[C@@H](Cc1ccccc1)C(=O)N[C@H]1c2ccccc2C[C@H]1O [MMV1782353, (2S)-1-[(2S,4R)-4-benzyl-2-hydroxy-5-[[(1S,2R)-2-hydroxy-2,3-dihydro-1H-inden-1-yl]amino]-5-oxopentyl]-N-tert-butyl-4-(furo[2,3-b]pyridin-5-ylmethyl)piperazine-2-carboxamide] | 562 ± 171 | > 200000 | 14300 ± 210 | > 200000 | 670 ± 70.2 |  |  | only partial inhibition of parasite invasion | permitted Pf development |  | > 100 | IC50 (PfINDO [1]; read-out: IC50 PfINDO): < 1000 nM; effect on merozoite egress and invasion (PfINDO late schizonts; listed as 1782353): slowed the schizont rupture; IC50 (PfCam3.1^R539T (MRA1240); read-out: IC50 PfCam3.1^R539T): > 1000 nM; IC50 (Pf3D7; read-out: IC50 Pf3D7): < 1000 nM
